In patent publication US20060100154A1, “Long-acting gonadotropin-releasing hormone analogs and methods of use thereof” (YEDA RESEARCH AND DEVELOPMENT CO, priority 2005, published 2006):
Square brackets hold non-standard residues; d marks the D form. Peptide text beside a SMILES is read from it. * marks the point of attachment. NQ = N-(2-chloro-1,4-naphthoquinonyl)-β-alanine, O=C1C(Cl)=C(NCCC(=O)*)C(=O)c2ccccc21; Glutaryl(OAqm) = O=C(CCCC(=O)*)OCc1ccc2c(c1)C(=O)c1ccccc1C2=O; X1 = O=C1c2cc(O)cc(O)c2C(=O)c2c(O)cc(C(=O)*)cc21; d(pGlu) = O=C1CC[C@H](C(=O)O)N1; pGlu = O=C1CC[C@@H](C(=O)O)N1; Emo = not defined here

Assays:
[1] = target: T1, rat pituitary GnRH receptors (Rattus norvegicus, UniProt P30969); assay: Displacement binding assay with 125I[D-Lys6]GnRH on rat pituitary membranes; conditions: for binding affinity to GnRH receptors (in words): FIG. 11; for increase of binding affinity to GnRH receptors compared to the parent peptide: vs [D-Lys6]GnRH; for IC50: Table 3, estimated IC50, 125I-[D-Lys6]GnRH tracer
T1 construct: from tissue; host or cells: rat pituitary membranes (Wistar-derived rats)
T1 sequence (P30969 1-327): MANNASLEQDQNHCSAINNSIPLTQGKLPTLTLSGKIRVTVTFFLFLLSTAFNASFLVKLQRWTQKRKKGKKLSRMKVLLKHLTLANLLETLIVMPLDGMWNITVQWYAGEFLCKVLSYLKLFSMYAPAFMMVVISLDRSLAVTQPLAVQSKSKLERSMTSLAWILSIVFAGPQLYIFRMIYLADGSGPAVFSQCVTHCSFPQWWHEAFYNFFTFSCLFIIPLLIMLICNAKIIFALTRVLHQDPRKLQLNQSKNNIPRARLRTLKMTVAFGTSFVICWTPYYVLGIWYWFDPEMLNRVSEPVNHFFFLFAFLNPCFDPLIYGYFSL
Protocol: Specific binding was calculated by subtracting the non-specific binding from the maximal binding, determined in the absence of any competing peptide. Results are the mean of two experiments carried out in triplicates. SEM values are omitted for clarity (FIG. 3).

[2] = Relative hydrophobicity by elution from RP-18 HPLC column; type: physicochemical; conditions: percent of buffer B in which the analog was eluted from RP-18 column
From the text: All chemicals and reagents were of analytical grade. Rink amide resin, 9-fluorenylmethoxycarbonyl (Fmoc) protected amino acid derivatives, and all the reagents for solid-phase peptide synthesis were purchased from Novabiochem (Läufelfingen, Switzerland). Side-chain protecting groups employed for peptide synthesis were as follows: Arg, 2,2,4,6,7-pentamethyldihydrobenzofuran-5-sulfonyl (Pbf); His, trityl (Trt); D-Lys, 4-methyltrityl (Mtt) or tert-butyloxycarbonyl (Boc); Trp, tert-butyloxycarbonyl (Boc); Ser and Tyr, tert-butyl (tBu). Reversed phase HPLC was performed on a Spectra-Physics SP-8800 liquid chromatography system equipped with an Applied Biosystems 757 variable wavelength absorbance detector. HPLC prepacked columns were: Lichrocart, containing Lichrosorb RP-18 (250×10 mm; 7 μm, Merck, Darmstadt, Germany) for semi-preparative purification and Lichrospher 100 RP-18 (250×4 mm; 5 μm, Merck, Darmstadt, Germany) and wide pore butyl C4 (250×4.6 mm; 5 μm, J. T. Baker Inc., Phillipsburg, N.J.) for analytical purposes. HPLC purification and analysis were achieved by using a linear gradient established between 0.1% trifluoroacetic acid […] in water as buffer A and 0.1% TFA in 75% aqueous acetonitrile as buffer B. Eluent composition was 10-100% B over 40 mlin, using RP-18 column, and a gradient of 0-100% B over 40 min employing a wide pore butyl (C4) column. N-(2noro-1,4-naphtoqumonyl)-β-alanine (NQ), 1,6,8-Trihydroxy-3-carboxylic acid-anthraquinone (Emo) and 2-hydroxymethyl-anthraquinone hemiglutarate (AntrQ) were synthesized as described^14,24,27 (for chemical structure see FIG. 1).

[3] = tested on: human breast and prostate cancer; conditions: literature ref 14; cited from earlier work
[4] = literature ref 14; cited from earlier work
αT3-1 cells [5] = assay: DNA fragmentation assay; type: cell-based, mouse; conditions: 10 μM, FIG. 10
Protocol: FIG. 10. DNA cleavage in cells treated with [D-Lys^6(Emo)]GnRH and emodic acid. αT3-1 cells were incubated; in darkness with 10 μM of the tested compounds, washed and illuminated. After 24 h of incubation DNA was isolated and analyzed by gel electrophoresis. Lanes 1, 3 and 5 represent DNA of cells treated with 1% DMSO in PBS, emodic acid or [D-Lys^6(Emo)]GnRH, respectively, followed by illumination. Lane 2, 4 and 6 represent cells treated with 1% DMSO in PBS, emodic acid, or [D-Lys^6(Emo)]GnRH, respectively, in darkness.
αT3-1 cells (×10^6/dish) were incubated in phenol red and serum free complete medium (37° C., 5% CO2) with the tested compounds for 5 h in the dark. Cells were then washed with PBS (×3) and illuminated or remained in darkness as described earlier. The media were then replaced by complete medium and cells were incubated for additional 24 h. DNA was then isolated, using Wizard® genomic DNA purification kit (Promega, Madison, Wis.) following the company's protocol and analyzed by gel electrophoresis (0.4% cross linked agarose, ethidium bromide staining).

αT3-1 cells [6] = assay: In vitro toxicity / phototoxicity (XTT cell survival); type: cell-based, mouse
Protocol: αT3-1 cells (50,000 cells/well) were plated in 96-well tissue culture plates in 0.1 mL of complete medium. After 24 h the medium was changed and cells were incubated in the same medium (without serum and phenol red) containing different concentrations of the tested compounds for 4 h at 37° C. The cells were then washed (×3) with PBS and illuminated (λmax=400 nm) in PBS. The fluence rate was 14.3 mW cm^−2 with a total fluence of 17 J cm^−2. Following illumination the media were replaced by complete medium and the plates were incubated for additional 24 h at 37° C. Cell survival was determined using the XTT (Biological Industries, Beit-Haemek, Israel) kit following the manufacture's protocol. Values are expressed as % survival.

[7] = target: T2, human serum albumin (HSA) (Homo sapiens, UniProt P02768); assay: Binding to HSA; type: in vitro ADME; conditions: 37° C., 3 h; FIG. 8
T2 construct: purchased Sigma, St. Louis, Mo
T2 sequence (P02768 25-609): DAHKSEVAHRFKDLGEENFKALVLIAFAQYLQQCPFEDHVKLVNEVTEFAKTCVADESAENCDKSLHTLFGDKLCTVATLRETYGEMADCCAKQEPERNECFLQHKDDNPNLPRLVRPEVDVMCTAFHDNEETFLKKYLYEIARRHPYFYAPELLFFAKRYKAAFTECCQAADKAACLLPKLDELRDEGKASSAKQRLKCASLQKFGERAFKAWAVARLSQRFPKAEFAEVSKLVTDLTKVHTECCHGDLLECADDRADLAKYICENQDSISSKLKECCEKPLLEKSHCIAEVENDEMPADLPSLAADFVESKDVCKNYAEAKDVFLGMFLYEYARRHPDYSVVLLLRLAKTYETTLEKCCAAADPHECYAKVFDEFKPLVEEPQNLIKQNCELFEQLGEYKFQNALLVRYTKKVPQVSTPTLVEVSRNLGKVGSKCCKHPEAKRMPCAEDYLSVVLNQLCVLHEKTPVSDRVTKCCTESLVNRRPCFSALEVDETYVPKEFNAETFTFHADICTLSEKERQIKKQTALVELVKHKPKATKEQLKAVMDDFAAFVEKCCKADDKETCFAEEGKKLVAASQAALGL
Protocol: The concentration of HSA in the solution was determined using a molar extinction coefficient of 39,000 M^−1 cm^−1 at 277.5 nm^33. The unbound compound was then separated from the HSA solution by applying it on to a Centricon® concentrator column (Amicon Inc., Beverly, Mass.) with a band pass membrane of […] according to the manufacture's protocol. The HSA bound compound (˜20 μL) was then precipitated by adding it to acetonitrile (1 mL). The supernatant was kept and the precipitate was dissolved in PBS (100 μL) and re-precipitated. The combined supernatants were evaporated, the residue was dissolved in water containing 0.1% TFA (buffer A) and analyzed by HPLC to determine the amount of the tested compounds. Results represent the mean of two experiments (FIG. 8).

[8] = literature ref 5; cited from earlier work
LH release = assay: In vivo LH release after intraperitoneal administration; set-up: species or system rat; conditions: 20 nmol/rat
Protocol: The ability of [D-Lys^6(Emo)]GnRH to bind GnRH receptors and promote LH release in vitro, prompted the evaluation of its in vivo activity.
Blood samples were withdrawn by cardiac puncture under light ether anesthesia at the indicated time intervals, and serum LH levels were determined by RIA as described above (FIG. 6). Results are the mean±SEM of LH concentrations in the serum of five animals/experimental group. The LH concentration was determined using three different dilutions of each serum sample. Similar results were obtained in two other experiments.

[9] = target: T3, rat pituitary GnRH receptor (rat, UniProt P30969 1-327); assay: displacement of 125I[D-Lys6]GnRH from rat pituitary membranes
T3 construct: whole, on cells; Native receptor; also called GnRH receptors; rat pituitary receptors
T3 sequence (looked up): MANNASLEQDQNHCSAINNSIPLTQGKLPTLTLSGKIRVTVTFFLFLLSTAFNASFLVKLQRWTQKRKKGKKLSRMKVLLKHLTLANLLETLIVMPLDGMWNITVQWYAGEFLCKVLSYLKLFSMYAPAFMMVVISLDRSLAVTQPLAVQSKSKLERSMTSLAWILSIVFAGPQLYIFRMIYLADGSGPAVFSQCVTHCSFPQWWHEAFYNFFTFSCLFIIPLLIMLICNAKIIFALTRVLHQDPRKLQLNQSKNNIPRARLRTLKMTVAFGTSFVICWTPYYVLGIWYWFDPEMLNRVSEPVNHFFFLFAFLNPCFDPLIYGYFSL
Protocol: Briefly, membranes were incubated for 90 min at 4° C. with ¹²⁵I[D-Lys⁶]GnRH and with the unlabeled peptides. Non-specific binding was defined as the residual binding in the presence of excess [D-Lys⁶]GnRH (1 μM). Specific binding was calculated by subtracting the non-specific binding from the maximal binding, determined in the absence of any competing peptide. Results are the mean of two experiments carried out in triplicates. SEM values are omitted for clarity (FIG. 3).

[10] = target: T3, rat pituitary GnRH receptor; assay: displacement of 125I[D-Lys6]GnRH from proestrous rat pituitary membranes

Molecule: [D-Pyr^1, D-Phe^2, D-Trp^3, D-Lys^6]GnRH ([d(pGlu)][dF][dW]SY[dK]LRPG-NH2; SMILES CC(C)C[C@H](NC(=O)[C@@H](CCCCN)NC(=O)[C@H](Cc1ccc(O)cc1)NC(=O)[C@H](CO)NC(=O)[C@@H](Cc1c[nH]c2ccccc12)NC(=O)[C@@H](Cc1ccccc1)NC(=O)[C@H]1CCC(=O)N1)C(=O)N[C@@H](CCCNC(=N)N)C(=O)N1CCC[C@H]1C(=O)NCC(N)=O)
- binding affinity to GnRH receptors (in words) [1]: lower binding affinity to GnRH receptor as compared to [D-Lys^6]GnRH

Molecule: CC(C)C[C@H](NC(=O)[C@@H](CCCCNC(=O)CCCC(=O)OCc1ccc2c(c1)C(=O)c1ccccc1C2=O)NC(=O)[C@H](Cc1ccc(O)cc1)NC(=O)[C@H](CO)NC(=O)[C@H](Cc1c[nH]c2ccccc12)NC(=O)[C@H](Cc1c[nH]cn1)NC(=O)[C@@H]1CCC(=O)N1)C(=O)N[C@@H](CCCNC(=N)N)C(=O)N1CCC[C@H]1C(=O)NCC(N)=O [[D-Lys^6(AntrQ)]GnRH, [D-Lys^6(2-hydroxymethyl-anthra-quinone hemiglutarate)] GnRH]
- Hydrophobicity (% B) [2]: 84 % B
- growth of human breast and prostate cancer [3]: inhibited the growth
- biological activity relative to the parent peptide [4]: five-fold higher
- increase of binding affinity to GnRH receptors compared to the parent peptide [1]: 5 folds

Molecule: O=C(O)c1cc(O)c2c(c1)C(=O)c1cc(O)cc(O)c1C2=O [emodic acid]
- DNA fragmentation in the dark (αT3-1 cells [5]; darkness): did not cause any DNA fragmentation
- DNA fragmentation upon illumination (αT3-1 cells [5]; illuminated): induced DNA fragmentation
- phototoxicity to αT3-1 cells (αT3-1 cells [6]; 10 μM, illuminated, FIG. 9): significant phototoxicity
- toxicity to αT3-1 cells in the dark (αT3-1 cells [6]; incubated in the dark): did not show any toxicity
- binding to HSA [7]: binds to HSA

Molecule: CC(C)C[C@H](NC(=O)[C@@H](CCCCNC(=O)CCNC1=C(Cl)C(=O)c2ccccc2C1=O)NC(=O)[C@H](Cc1ccc(O)cc1)NC(=O)[C@H](CO)NC(=O)[C@H](Cc1c[nH]c2ccccc12)NC(=O)[C@H](Cc1c[nH]cn1)NC(=O)[C@@H]1CCC(=O)N1)C(=O)N[C@@H](CCCNC(=N)N)C(=O)N1CCC[C@H]1C(=O)NCC(N)=O [[D-Lys^6(NQ)]GnRH, [D-Lys^6(N-(2-chloro-1,4-naphthoquinonyl)-β-alanyl)]GnRH]
- Hydrophobicity (% B) [2]: 59 % B
- increase of binding affinity to GnRH receptors compared to the parent peptide [1]: 2 folds

Molecule: pGlu-His-Trp-Ser-Tyr-Gly-Leu-Arg-Pro-Gly-NH2 [GnRH]
- half-life time in the general circulation [8]: 2 to 4 min

Molecule: CC(C)C[C@H](NC(=O)[C@@H](CCCCN)NC(=O)[C@H](Cc1ccc(O)cc1)NC(=O)[C@H](CO)NC(=O)[C@H](Cc1c[nH]c2ccccc12)NC(=O)[C@H](Cc1c[nH]cn1)NC(=O)[C@@H]1CCC(=O)N1)C(=O)N[C@@H](CCCNC(=N)N)C(=O)N1CCC[C@H]1C(=O)NCC(N)=O [[D-Lys^6]GnRH]
- Hydrophobicity (% B) [2]: 37 % B
- increase in serum LH levels at higher dose (LH release): larger increase in serum LH levels

Molecule: CC(C)C[C@H](NC(=O)[C@@H](CCCCN)NC(=O)[C@H](Cc1ccc(O)cc1)NC(=O)[C@H](CO)NC(=O)[C@@H](Cc1c[nH]c2ccccc12)NC(=O)[C@@H](Cc1ccccc1)NC(=O)[C@H]1CCC(=O)N1)C(=O)N[C@@H](CCCNC(=N)N)C(=O)N1CCC[C@H]1C(=O)NCC(N)=O [[D-Lys^6]Antg, [D-Pyr^1, D-Phe^2, D-Trp^3, D-Lys^6]GnRH] ([d(pGlu)][dF][dW]SY[dK]LRPG-NH2)
- IC50 [1]: 45 nM

Molecule: CC(C)C[C@H](NC(=O)[C@@H](CCCCNC(=O)c1cc(O)c2c(c1)C(=O)c1cc(O)cc(O)c1C2=O)NC(=O)[C@H](Cc1ccc(O)cc1)NC(=O)[C@H](CO)NC(=O)[C@@H](Cc1c[nH]c2ccccc12)NC(=O)[C@@H](Cc1ccccc1)NC(=O)[C@H]1CCC(=O)N1)C(=O)N[C@@H](CCCNC(=N)N)C(=O)N1CCC[C@H]1C(=O)NCC(N)=O [[D-Lys^6(Emo)]Antg, [D-Pyr^1, D-Phe^2, D-Trp^3, D-Lys^6(Emo)]GnRH] ([d(pGlu)][dF][dW]SY[dK](X1)LRPG-NH2)
- binding affinity to GnRH receptors (in words) [1]: lower binding affinity
- IC50 [1]: 150 nM

B1: [D-Lys^6(N-(2-chloro-1,4-naphthoquinonyl)-β-alanyl)]GnRH (peptide)
peptide: [pGlu]HWSY[dK](NQ)LRPG-NH2
notes: Quinone conjugate of [D-Lys6]GnRH; also called [D-Lys^6(NQ)]GnRH
- IC50 [9]: 0.09 nM

B2: [D-Lys^6(1,3,8-trihydroxy-6-carboxy-anthraquinone)]GnRH (peptide)
peptide: [pGlu]HWSY[dK](Emo)LRPG-NH2
modifications: not fully specified; printed as [D-Lys^6(1,3,8-trihydroxy-6-carboxy-anthraquinone)]GnRH; reading uncertain
notes: Emodic acid conjugate of [D-Lys6]GnRH, an agonist; also called [D-Lys^6(Emo)]GnRH; [D-(Emo)]GnRH
- IC50 [10]: 2.6 nM
- IC50 [9]: 0.25 nM

B3: [D-Lys^6(2-hydroxymethyl-anthraquinone hemiglutarate)]GnRH (peptide)
peptide: [pGlu]HWSY[dK](Glutaryl(OAqm))LRPG-NH2
notes: Quinone conjugate of [D-Lys6]GnRH; also called [D-Lys^6(AntrQ)]GnRH; [D-Lys^6(AntQ)]GnRH
- IC50 [9]: 0.02 nM
